Results as given in patent US20240148821A1, “PHARMACEUTICAL USE OF CYCLIC PEPTIDE COMPOUND” (CHUGAI SEIYAKU KABUSHIKI KAISHA, priority 2021, published 2024).
Numbered stars: 1 amine (or outer) side, 2 acyl side, 3 side chain; on linkers, the order of the positions; unused ones are H or OH. Bridge positions count the residues as written; N and C are the ends. Square brackets hold non-standard residues; d marks the D form. Peptide text beside a SMILES is read from it. * marks the point of attachment. hPhe(3,5-F2-4-CF3) = N[C@@H](CCc1cc(F)c(C(F)(F)F)c(F)c1)C(=O)O; hPhe(3-Cl-4-CF3) = N[C@@H](CCc1ccc(C(F)(F)F)c(Cl)c1)C(=O)O; NEtPhe(4-CF3) = CCN[C@@H](Cc1ccc(C(F)(F)F)cc1)C(=O)O; Pro(trans-4-Ph) = O=C(O)[C@@H]1C[C@@H](c2ccccc2)CN1; NMeNle(6-CHF2) = CN[C@@H](CCCCC(F)F)C(=O)O; NMedβ3hAla = C[C@H](CC(=O)[*:2])N(C)[*:1]; NMeAla(cPent) = CN[C@@H](CC1CCCC1)C(=O)O; NMeGly(cPent) = CN[C@H](C(=O)O)C1CCCC1; Pro(4,4-F2) = O=C(O)[C@@H]1CC(F)(F)CN1; Ala(cPent) = N[C@@H](CC1CCCC1)C(=O)O; NMeCha = CN[C@@H](CC1CCCCC1)C(=O)O; Hyp = O=C(O)[C@@H]1C[C@@H](O)CN1; NMeChg = CN[C@H](C(=O)O)C1CCCCC1; NMeI = CC[C@H](C)[C@H](NC)C(=O)O; NMeD = CN[C@@H](CC(=O)O)C(=O)O; CH2CONHtBu = CC(C)(C)NC(=O)C*; NMeL = CN[C@@H](CC(C)C)C(=O)O; NMeV = CN[C@H](C(=O)O)C(C)C; d(β3hA) = C[C@@H](N)CC(=O)O; NMeS = CN[C@@H](CO)C(=O)O; NMeA = CN[C@@H](C)C(=O)O; Piperidide = C1CCN(*)CC1; Ac5c = NC1(C(=O)O)CCCC1; Aze = O=C(O)[C@@H]1CCN1; Ac4c = NC1(C(=O)O)CCC1; Sar = CNCC(=O)O

biological target: protein-protein interaction between Kras and SOS1 (biotin-tagged human Kras loaded with GDP, His-tagged human SOS1) (Homo sapiens (Human), UniProt P01116, G12D); experiment: Protein-protein interaction inhibition between Kras and SOS1 (KrasG12D-SOS PPI) using AlphaScreen; format: biochemical; conditions: AlphaScreen; biotin-tagged human Kras loaded with GDP, His-tagged human SOS1; read-out: KRAS G12D-SOS PPI IC50;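 note: kras produced in E. coli, Ni-coupled donor beads and streptavidin acceptor beads, excitation 680 nm with emission detected at 520–620 nm via singlet oxygen transfer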

SMILES | IC50
CC[C@H](C)[C@@H]1NC(=O)[C@H](CC(C)C)N(C)C(=O)C[C@@H](C)NC(=O)[C@H](C(C)C)N(C)C(=O)C2(CCCC2)NC(=O)[C@@H]2CCCN2C(=O)[C@H](CCc2ccc(C(F)(F)F)c(Cl)c2)NC(=O)CN(C)C(=O)[C@H](CC2CCCCC2)N(C)C(=O)[C@@H]2CCN2C(=O)[C@H](COCC(=O)NC(C)(C)C)N(C)C1=O [Compound 70] (cyclo([Ac5c][NMeV][d(β3hA)][NMeL]I[NMeS](CH2CONHtBu)[Aze][NMeCha][Sar][hPhe(3-Cl-4-CF3)]P)) | 160 nM
CCO[C@@H]1C[C@H]2C(=O)NC3(CCCC3)C(=O)N(C)[C@@H](C3CCCC3)C(=O)N(C)[C@H](C)CC(=O)N(C)[C@@H](CC(C)C)C(=O)N[C@@H]([C@@H](C)CC)C(=O)N(C)CC(=O)N(C)CC(=O)N(C)[C@@H](CC3CCCCC3)C(=O)N(C)CC(=O)N[C@@H](CCc3cc(F)c(C(F)(F)F)c(F)c3)C(=O)N2C1 [Compound 74] (cyclo([Ac5c][NMeGly(cPent)][NMedβ3hAla][NMeL]I[Sar][Sar][NMeCha][Sar][hPhe(3,5-F2-4-CF3)][Hyp](Et))) | 7.2 nM
CC[C@H](C)[C@@H]1NC(=O)[C@H](CC(C)C)N(C)C(=O)C[C@@H](C(=O)N2CCCCC2)N(C)C(=O)[C@H](C(C)C)N(C)C(=O)C2(CCCC2)NC(=O)[C@@H]2CCCN2C(=O)[C@H](CCc2ccc(C(F)(F)F)c(Cl)c2)NC(=O)CN(C)C(=O)[C@H](CCCCC(F)F)N(C)C(=O)[C@@H]2CCN2C(=O)[C@H](C)N(C)C1=O [Compound 78] ([NMeL]I[NMeA][Aze][NMeNle(6-CHF2)][Sar][hPhe(3-Cl-4-CF3)]P[Ac5c][NMeV][NMeD]-Piperidide; lactam N-11) | 1.6 nM
CC[C@H](C)[C@@H]1NC(=O)[C@H](CC(C)C)N(C)C(=O)C[C@@H](C)N(C)C(=O)[C@H]([C@@H](C)CC)N(C)C(=O)C2(CCCC2)NC(=O)[C@@H]2CCCN2C(=O)[C@H](CCc2ccc(C(F)(F)F)c(Cl)c2)NC(=O)CN(C)C(=O)[C@H](C2CCCC2)N(C)C(=O)[C@@H]2CCN2C(=O)[C@H](C)N(C)C1=O [Compound 79] (cyclo([Ac5c][NMeI][NMedβ3hAla][NMeL]I[NMeA][Aze][NMeGly(cPent)][Sar][hPhe(3-Cl-4-CF3)]P)) | 9.3 nM
CC(C)C[C@H]1C(=O)N[C@@H](CC2CCCC2)C(=O)N(C)[C@@H](C)C(=O)N2CC[C@H]2C(=O)N(C)[C@@H](CC2CCCCC2)C(=O)N(C)CC(=O)N[C@@H](CCc2ccc(C(F)(F)F)c(Cl)c2)C(=O)N2CCC[C@H]2C(=O)NC2(CCCC2)C(=O)N(C)[C@@H](C(C)C)C(=O)N(C)[C@H](C(=O)N2CCCCC2)CC(=O)N1C [Compound 84] ([NMeL][Ala(cPent)][NMeA][Aze][NMeCha][Sar][hPhe(3-Cl-4-CF3)]P[Ac5c][NMeV][NMeD]-Piperidide; lactam N-11) | 73 nM
CC[C@H](C)[C@@H]1NC(=O)[C@H](CC(C)C)N(C)C(=O)C[C@@H](C)N(C)C(=O)[C@H]([C@@H](C)CC)N(C)C(=O)C2(CCC2)NC(=O)[C@@H]2CC(F)(F)CN2C(=O)[C@H](CCc2cc(F)c(C(F)(F)F)c(F)c2)NC(=O)CN(C)C(=O)[C@H](Cc2ccc(C(F)(F)F)cc2)N(CC)C(=O)[C@@H]2CCN2C(=O)[C@H](C)N(C)C1=O [Compound 85] (cyclo([Ac4c][NMeI][NMedβ3hAla][NMeL]I[NMeA][Aze][NEtPhe(4-CF3)][Sar][hPhe(3,5-F2-4-CF3)][Pro(4,4-F2)])) | 15 nM
CC[C@H](C)[C@@H]1NC(=O)[C@H](CC(C)C)N(C)C(=O)C[C@@H](C)N(C)C(=O)[C@H](C(C)C)N(C)C(=O)C2(CCCC2)NC(=O)[C@@H]2CCCN2C(=O)[C@H](CCc2ccc(C(F)(F)F)c(Cl)c2)NC(=O)CN(C)C(=O)[C@H](CC2CCCC2)N(C)C(=O)CN(C)C(=O)CN(C)C1=O [Compound 88] (cyclo([Ac5c][NMeV][NMedβ3hAla][NMeL]I[Sar][Sar][NMeAla(cPent)][Sar][hPhe(3-Cl-4-CF3)]P)) | 18 nM
CC[C@H](C)[C@@H]1NC(=O)[C@H](CC(C)C)N(C)C(=O)C[C@@H](C(=O)N2CCCCC2)N(C)C(=O)[C@H](C2CCCCC2)N(C)C(=O)C2(CCCC2)NC(=O)[C@@H]2C[C@@H](c3ccccc3)CN2C(=O)[C@H](CCc2ccc(C(F)(F)F)c(Cl)c2)NC(=O)CN(C)C(=O)[C@H](CC2CCCCC2)N(C)C(=O)CN(C)C(=O)CN(C)C1=O [Compound 90] ([NMeL]I[Sar][Sar][NMeCha][Sar][hPhe(3-Cl-4-CF3)][Pro(trans-4-Ph)][Ac5c][NMeChg][NMeD]-Piperidide; lactam N-11) | 5 nM
CC[C@H](C)[C@@H]1NC(=O)[C@H](CCCCC(F)F)N(C)C(=O)C[C@@H](C(=O)N2CCCCC2)N(C)C(=O)[C@H](C(C)C)N(C)C(=O)C2(CCCC2)NC(=O)[C@@H]2CCCN2C(=O)[C@H](CCc2ccc(C(F)(F)F)c(Cl)c2)NC(=O)CN(C)C(=O)[C@H](CC2CCCCC2)N(C)C(=O)[C@@H]2CCN2C(=O)[C@H](C)N(C)C1=O [Compound 94] ([NMeNle(6-CHF2)]I[NMeA][Aze][NMeCha][Sar][hPhe(3-Cl-4-CF3)]P[Ac5c][NMeV][NMeD]-Piperidide; lactam N-11) | 3.3 nM
